Experimental findings from patent US10501748B2, “Methods and compositions for integration of an exogenous sequence within the genome of plants” (Dow AgroSciences LLC, priority 2013, dated 2019) are described below.

The test system of the assay is protoplasts of SEC-derived cell suspension culture of cv. Bobwhite MPB26RH. Briefly: basal tolerance to IMAZAMOX of protoplast agarose bead-type cultures (calli growth). The note with it: 2 weeks. The format is cell-based, Triticum aestivum. The source says: IMAZAMOX® selection conditions are optimized using protoplasts derived from somatic embryogenic callus (SEC)-derived cell suspension culture of the wheat line cv. Bobwhite MPB26RH. While protoplasts derived from Bobwhite MPB26RH are non-totipotent (i.e., cannot be used to regenerate entire plants), the selection conditions established for enriching for events expressing the AHAS (653N) mutation are expected to be transferable to any protoplast-based transformation system based on a totipotent wheat genotype, which those in the art would recognize. The experiments conducted establish the basal tolerance of the wild-type donor wheat line cv. Bobwhite MPB26RH (S653/S653 genotype, which confers susceptibility to imidazolinones) to IMAZAMOX®. The use of IMAZAMOX® selection conditions stronger than basal tolerance will strongly enrich for transformed cells expressing the AHAS (S653N) mutation.
Further transformation methods are applicable. For example a cell suspension culture for wheat line cv. Bobwhite MPB26RH can be established. Somatic embryogenic callus (SEC) is induced from immature zygotic embryos of wheat line cv. […]
The basal tolerance of wheat line cv. Bobwhite MPB26RH to IMAZAMOX® is determined by incubating the agarose bead-type cultures in media supplemented with 0, 50, 100, 200, 400 and 600 nM IMAZAMOX® and assessing the rate of calli growth after 2 weeks.

For the compound `COCc1cnc(C2=NC(C)(C(C)C)C(=O)N2)c(C(=O)O)c1` (stereo not shown) [IMAZAMOX], the “concentrations that impede calli development” value was “higher than 200 nM”.
